Measured values from patent US4456597A.

Experiments:
Assay type in all cases: cell-based
Settings in all cases: 1.0 μg/ml
spleen cell suspension [1] = assay: IF induction in vitro, rabbit (Table 6)
Experimental: (§1) A spleen cell suspension (10^7 cells/ml) was prepared by the method of hereinafter described Experiment 1 using an Eagle MEM medium (commercial product of Nissui Seiyaku K.K., Tokyo) containing a 10% calf serum (which was replaced by a 10% fetal cattle serum in the cases of human tests), each of which fraction (1 ml) was added with a given concetration of the sample and incubated overnight at a given temperature. The cultured liquor was centrifuged to separate a supernatant which was used for determining the IF activity induced. In the case of humans, the fresh spleen was collected from a person (adult deceased by external wounds) and used for the preparation of a leucocytes suspension on each occasion, and also blood was collected from the vein at the upper arm of a person (adult), from which the serum was separated to use for the preparation of a serum suspension on each occasion.
(§2) The IF activities were determined by using the cells shown in Table 5 in a similar manner to that hereinafter described in Experiment 1.

spleen cell suspension [2] = assay: IF induction in vitro, mouse (Table 6)
Experimental: as §1, §2

Human (spleen) = assay: IF induction in vitro, human spleen (Table 6)
Experimental: as §1, §2

With Poly I:C the “IF activity in vitro (Control)” value (spleen cell suspension [1]) was 190, the “IF activity in vitro (Control)” value (spleen cell suspension [2]) was 80 and the “IF activity in vitro (Control)” value (Human (spleen)) was less than 10.
